Results: patent US4000269A, “S-(α-substituted-arylmethylthio, -arylmethylsulfinyl, and -arylmethylsulfonyl)methyl phosphorus esters used as insecticides” (priority 1975, dated 1976)
Where two headings read alike, the source gives them in different places.

Columns and labels:
Format in all cases: in vivo
[1] = test system: Tarnished Plant Bug (Lygus lineolaris); test: A. Tarnished Plant Bug leaf-dip test; settings: 48 h, read-out: Percent Mortality, Tarnished plant Bug
Protocol: (§1) Test compounds are prepared as 1000 ppm. solutions in 10 % acetone, 0.2 % Alrodyne 315 , and 89.8 % water. A tenfold dilution is made with 65 % acetone and 35 % water. The primary leaves of Sieva lima bean plants are dipped for 3 to 5 seconds in the test solutions and placed in an exhaust hood to dry. When dry, each leaf is placed in a 4 -inch petri dish with a moist filter paper on the bottom. Ten adult Lygus bugs are aspirated from the stock culture and placed in the petri dish. The dishes are covered and held at 80° F. and 50 % R.H. After 2 days, mortality counts are made.

[2] = test system: Boll Weevil (Anthonomus grandis); test: B. Boll Weevil leaf-dip test; settings: 48 h, read-out: Percent Mortality, Boll Weevil
Protocol: as §1, with “The first or second true leaf” for “The primary leaves”, “of young cotton” for “of Sieva lima bean”, “plants is” for “plants are”, “test solution” for “test solutions”, “adult boll weevils” for “adult Lygus bugs”, “are removed” for “are aspirated”

Bean Aphid (Aphis fabae) = test: C. Bean Aphid spray test; settings: 48 h, read-out: Percent Mortality, Bean Aphid
Protocol: Compounds are tested at 100 , 10 and 1 ppm. in solution or suspension in 65 % acetone/35 % water. Two-inch fiber pots each containing a nasturtium plant 2 inches high and infested with about 150 aphids 2 days earlier, are placed on a turntable (4 RPM) and sprayed for two revolutions with a No. 154 DeVilbiss Atomizer at 20 psi. air pressure. The spray tip is held about 6 inches from the plants, and the spray is directed so as to give complete coverage of the aphids and the plants. The sprayed plants are laid on their sides on white enamel trays. Mortality estimates are made after holding for 2 days at 70° F. and 50% R.H.

[3] = test system: Southern Armyworm (Prodenia eridania); test: D. Southern Armyworm leaf-dip test; settings: Spodoptera eridania, 48 h, read-out: Percent Mortality, Southern Armyworm
Protocol: Compounds are tested at 1000 and 100 ppm. in solution or suspension in 65 % acetone/35 % water. Sieva lima bean primary leaves are dipped for 3 seconds in the test solution and set in a hood on a screen to dry. When dry, each leaf is placed in a 4 -inch petri dish which has a moist filter paper in the bottom and ten third-instar armyworm larvae about 3/8 inch long. The dishes are covered and held at 80° F., and 60 % R.H. After 2 days, mortality counts and estimates of the amount of feeding are made. Compounds showing partial kill and/or inhibition of feeding are held an extra day for further observations.

[4] = test system: Two-spotted Spider Mite (Tetranychus urticae); test: E. Two-spotted Spider Mite plant-dip test; settings: 48 h, read-out: Percent Mortality, Two-spotted Spider Mite; for mortality at 100 ppm: 2 days
Protocol: Sieva lima bean plants with primary leaves 3 to 4 inches long are infested with about 100 adult mites per leaf 4 hours before use in this test. The mite and egg infested plants are dipped for 3 seconds in the same solutions used in the aphid test, and the plants set in the hood to dry. They are held for 2 days at 80° F., 60% R.H., and the adult mite mortality estimated on one leaf under a steroscopic microscope. The other leaf is left on the plant an additional 5 days and then examined at 10 X power to estimate the kill of eggs and of newly hatched nymphs, giving a measure of ovicidal and residual action, respectively.

[5] = test system: Mexican Bean Beetle (Epilachna varivestis); test: F. Mexican Bean Beetle leaf-dip test; settings: 48 h, 2 days, read-out: Percent Mortality, Mexican Bean Beetle
Protocol: Compounds to be tested are made up as 100 or 10 ppm. solutions in 65 % acetone/35 % water. Sieva lima bean leaves are dipped in the test solution and set in the hood to dry. When dry, they are placed in 4 -inch petri dishes which have a moist filter paper in the bottom, and 10 third-instar bean beetles are added to each dish. The dishes are covered and held at 80° F., 60 % R.H. After 2 days, mortality counts and estimates of the amount of feeding are made. Compounds showing kills greater than 75 % are further tested at tenfold dilutions in 65 % acetone/35 % water.

[6] = test system: Western Potato Leafhopper (Empoasca abrupta); test: G. Western Potato Leafhopper plant-dip test; settings: 48 h, 2 days, read-out: Percent Mortality, Western Potato Leafhopper
Protocol: Sieva lima bean plants with the primary leaf expanded to 3 to 4 inches are dipped into 100 or 10 ppm. 50 % acetone/50 % water solutions and set in the hood to dry. A 1 -inch piece of the tip of a treated leaf is cut off and placed in a 4 -inch petri dish with a moist filter paper in the bottom. From 3 to 10 second-instar nymphs are tapped from the culture plants into the test dish and rapidly covered. Mortality counts are made after 2 days at 80° F., and 50 % R.H.

[7] = test system: Malaria Mosquito (Anopheles quadrimaculatus); test: H. Malaria Mosquito Adult Test; settings: 24 h, adults, 1 day, read-out: Percent Mortality, Malaria Mosquito
Protocol: Solutions of 65% acetone/35% water containing 10 ppm. of test compound are poured into wide-mouth 2-ounce jars, each containing a microscope slide. The slides are removed from the test solution with forceps and laid horizontally to dry on a wide-mouth 4-ounce bottle. When dry, they are placed in the same 4-ounce bottle and 10 4- to 5-day-old mosquitoes of mixed sexes are added to each bottle. A piece of cotton gauze held on by an elastic band serves as a lid, and wad of cotton soaked in 10% honey solution serves as food. Mortality counts are made after 1 day at 80° F., 50% R.H. (relative humidity) Data obtained with the above procedures are reported in Table II below.

[8] = test system: Southern corn rootworm larvae (Diabrotica undecimpunctata); test: Southern Corn Rootworm Control (treated soil, dust on talc); settings: 144 h, potting soil, mortality after 6 days, read-out: Percent Control of Southern Corn Rootworm Larvae; for mortality at 1120.85 g/ha: 1 lbs./Acre; for mortality at 11208.5 g/ha: 10 lbs./Acre; for mortality at 56042.5 g/ha: 50 lbs./Acre
Protocol: Compounds are prepared as dusts on talc. The compounds are dissolved in acetone, and appropriate rates obtained by serial dilution. One and one-quarter milliliters of solution is pipetted onto a standard volume of dust in 1 -ounce jars, and the acetone allowed to evaporate. Twenty-five milliliters of moist soil and about 200 millet seeds are placed in the jar, capped and the contents thoroughly mixed. Ten second-instar larvae of the Southern corn rootworm (Diabrotica undecimpunctata ) are then placed in each jar. Mortality counts are made after 6 days and percent mortality determined.

CCOP(=S)(OCC)SCSC(CC)(CC)c1ccccc1 [drawing 15]
mortality at 100 ppm ([1]; 100 ppm., 2 days): 0%
mortality at 100 ppm ([2]; 100 ppm., 2 days): 0%
mortality at 1 ppm (Bean Aphid (Aphis fabae); 1 ppm., 2 days): 0%
mortality at 10 ppm (Bean Aphid (Aphis fabae); 2 days): 100%
mortality at 100 ppm (Bean Aphid (Aphis fabae); 2 days): 100%
mortality at 100 ppm ([3]; 2 days): 0%
mortality at 1000 ppm ([3]; 1000 ppm., 2 days): 100%
mortality at 300 ppm [4]: 0%
mortality at 10 ppm [5]: 0%
mortality at 100 ppm [5]: 90%
mortality at 100 ppm [6]: 0%
mortality at 10 ppm [7]: 0%

CCOP(=S)(OCC)SCSC(C)(CC)c1ccccc1 (stereo not drawn) [drawing 14]
mortality at 100 ppm ([1]; 100 ppm., 2 days): 0%
mortality at 100 ppm ([2]; 100 ppm., 2 days): 0%
mortality at 1 ppm (Bean Aphid (Aphis fabae); 1 ppm., 2 days): 100%
mortality at 10 ppm (Bean Aphid (Aphis fabae); 2 days): 100%
mortality at 100 ppm (Bean Aphid (Aphis fabae); 2 days): 100%
mortality at 100 ppm ([3]; 2 days): 0%
mortality at 1000 ppm ([3]; 1000 ppm., 2 days): 100%
mortality at 100 ppm [4]: 0%
mortality at 300 ppm [4]: 50%
mortality at 100 ppm [5]: 0%
mortality at 10 ppm [6]: 0%
mortality at 100 ppm [6]: 100%
mortality at 10 ppm [7]: 70%

COP(=S)(OC)SCSC(C)(C)c1cccc(Cl)c1Cl [drawing 12]
mortality at 100 ppm [1]: 0%
mortality at 100 ppm [2]: 0%
mortality at 1 ppm (Bean Aphid (Aphis fabae)): 75%
mortality at 1000 ppm [3]: 100%
mortality at 100 ppm ([3]; 2 days): 0%
mortality at 100 ppm [4]: 0%
mortality at 300 ppm [4]: 0%
mortality at 100 ppm [5]: 60%
mortality at 100 ppm [6]: 100%
mortality at 10 ppm [7]: 90%

CCOP(=S)(OCC)SCSC(C)(C)c1cc(Cl)ccc1Cl [Example 10, S-(2,5-Dichloro-α,α-dimethylbenzylthio)-methyl O,O-Diethyl Phosphorodithioate]
mortality at 1120.85 g/ha [8]: 0%
mortality at 11208.5 g/ha [8]: 100%
mortality at 56042.5 g/ha [8]: 100%

CCOP(=S)(OCC)SCSC(C)(C)c1ccccc1 [drawing 6]
mortality at 100 ppm ([1]; 100 ppm., 2 days): 94%
mortality at 100 ppm ([2]; 100 ppm., 2 days): 95%
mortality at 1 ppm (Bean Aphid (Aphis fabae); 1 ppm., 2 days): 85%
mortality at 10 ppm (Bean Aphid (Aphis fabae); 2 days): 100%
mortality at 100 ppm (Bean Aphid (Aphis fabae); 2 days): 100%
mortality at 100 ppm ([3]; 2 days): 100%
mortality at 1000 ppm ([3]; 1000 ppm., 2 days): 100%
mortality at 100 ppm [4]: 75%
mortality at 10 ppm [5]: 40%
mortality at 100 ppm [5]: 100%
mortality at 10 ppm [6]: 100%
mortality at 100 ppm [6]: 100%
mortality at 10 ppm [7]: 100%

CCOP(=S)(OCC)SCSC(CC)(CC)c1ccccc1 [Example 22, S-(α,α-Diethylbenzylthio)methyl O,O-Diethyl Phosphorodithioate]
mortality at 1120.85 g/ha [8]: 50%
mortality at 11208.5 g/ha [8]: 100%
mortality at 56042.5 g/ha [8]: 100%
